{
  "source": "patent US20260224566A1",
  "about": "“Obicetrapib and Ezetimibe Combination Treatment and Fixed Dose Pharmaceutical Compositions” (NewAmsterdam Pharma B.V., priority 2023, published 2026)",
  "key": {"[1]": {"tested_on": "participants currently receiving high-intensity statin therapy", "assay": "ROSE2 Phase 2b clinical trial: safety and tolerability (adverse events, disposition)", "assay_type": "in vivo, human", "protocol": "The safety and tolerability profile of obicetrapib 10 mg, both in combination with ezetimibe 10 mg and as monotherapy, will be assessed by clinical laboratory assessments (chemistry and hematology), vital signs, physical examinations, and the incidence of AEs.\nAn AE can therefore be any unfavorable and/or unintended sign (including an abnormal laboratory finding), symptom, or disease temporally associated with the use of an investigational medicinal product, whether or not related to the investigational medicinal product. All AEs, including observed or volunteered problems, complaints, or symptoms, are to be recorded on the appropriate eCRF.\nAEs, which include clinical laboratory assessment variables, will be monitored and documented from the time of first dose of study treatment until completion of Visit 5. Participants should be instructed to report any AE that they experience to the Investigator, whether or not they think the event is due to study drug. Beginning at the date of the first dose of study treatment, Investigators should make an assessment for AEs at each visit and record the event on the appropriate AE eCRF.\nThe Investigator will assess the severity (intensity) of each AE as mild, moderate, or severe, and will also categorize each AE as to its potential relationship to study drug using the categories of yes or no.\nAn AE or adverse reaction is considered serious if, in the view of either the Investigator or Sponsor, it results in any of the following outcomes: • Death; • A life-threatening AE; Note: An AE or adverse reaction is considered “life-threatening” if, in view of either the Investigator or Sponsor, its occurrence places the participant at immediate risk of death. […] However, unexpected complications and/or prolongation of hospitalization that occur during elective surgery should be recorded as AEs and assessed for seriousness. Admission to the hospital for social or situational reasons (ie, no place to stay, live too far away to come for hospital visits, respite care) will not be considered inpatient hospitalizations. • A persistent or significant disability/incapacity or substantial disruption of the ability to conduct normal life functions; • A congenital anomaly/birth defect; or • An important medical event.\nThe Safety Population will include all participants who receive at least 1 dose of any study drug. Treatment classification will be based on the actual treatment received. The Safety Population will be the primary population used for the safety analyses."}, "CETP": {"molecular_target": "T1, CETP (Homo sapiens, UniProt P11597)", "T1 construct": "from tissue; host or cells: female ApoE*3-Leiden.CETP transgenic mice dosed in vivo", "T1 sequence (P11597 18-493)": "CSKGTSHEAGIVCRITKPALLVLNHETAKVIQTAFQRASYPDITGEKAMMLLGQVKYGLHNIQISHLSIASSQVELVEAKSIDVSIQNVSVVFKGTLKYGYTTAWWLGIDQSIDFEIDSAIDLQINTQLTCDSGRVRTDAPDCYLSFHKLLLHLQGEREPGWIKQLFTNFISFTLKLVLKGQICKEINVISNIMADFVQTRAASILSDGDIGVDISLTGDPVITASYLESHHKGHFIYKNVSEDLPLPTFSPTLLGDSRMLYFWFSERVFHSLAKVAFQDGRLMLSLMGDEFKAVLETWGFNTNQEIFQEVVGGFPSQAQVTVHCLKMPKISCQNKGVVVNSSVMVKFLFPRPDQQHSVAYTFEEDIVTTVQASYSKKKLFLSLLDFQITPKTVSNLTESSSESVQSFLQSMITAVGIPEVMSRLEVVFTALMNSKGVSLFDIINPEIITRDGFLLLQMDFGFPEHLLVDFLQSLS", "assay": "Example 12: CETP activity and mass in ApoE*3-Leiden.CETP mice", "assay_type": "in vivo, mouse", "protocol": "To further elucidate the effects of the combination treatment, further studies were carried out using a standard human CETP transgenic knock-in mouse. As can be inferred from the experimental results reported herein, Obicetrapib alone and the combination with ezetimibe reduce non-HDL-C levels by increased VLDL lipolysis, increased VLDL clearance and elevated LDL receptor levels accompanied by an enhanced fecal bile acid and neutral sterol excretion.\n(§1) The experimental protocol is illustrated in FIG. 71, with time (t) measured in weeks. Female ApoE*3-Leiden.CETP transgenic mice were fed a Western diet with 0.05% w/w cholesterol (equivalent to daily human intake) with (i) no drug (control), or the same diet containing (ii) obicetrapib alone (2 mg/kg/day), (iii) ezetimibe alone (1 mg/kg/day) or (iv) the combination of obicetrapib and ezetimibe. In the experiment, the effects of the treatments on, amongst other things, plasma blood lipids and fecal bile acids and sterols were determined."}, "[2]": {"tested_on": "ApoE*3-Leiden.CETP transgenic mice", "assay": "Example 13: plasma cholesterol and atherosclerosis development in aortic root of ApoE*3-Leiden.CETP mice", "assay_type": "in vivo, mouse", "protocol": "The current study was carried out to evaluate the effect of obicetrapib monotherapy and a combination of obicetrapib+ezetimibe on atherosclerosis development in a translational mouse model for hyperlipidemia and atherosclerosis.\nas §1, with “82,” for “71,”, “(on average 0.6” for “(1”, “ezetimibe.” for “ezetimibe. In the experiment, the effects of the treatments on, amongst other things, plasma blood lipids and fecal bile acids and sterols were determined.”"}, "[3]": {"tested_on": "patients with mild dyslipidemia", "conditions": "cited from earlier work"}, "[4]": {"tested_on": "critical physiological systems", "conditions": "rats, doses up to 300 mg/kg; cited from earlier work"}, "[5]": {"conditions": "All Randomized Participants, obicetrapib 10 mg (N = 39), obicetrapib 10 mg + ezetimibe 10 mg (N = 40)"}, "[6]": {"conditions": "Safety Population, 10 mg each drug"}, "[7]": {"conditions": "Safety Population, 10 mg each drug, last line so labelled (r41)"}, "[8]": {"conditions": "aortic root, 28 weeks of treatment"}, "[9]": {"conditions": "obicetrapib 2 mg/kg/day, ezetimibe on average 0.6 mg/kg/day in Western diet"}},
  "data": [
    {"smiles": "CCOC(=O)N1c2ccc(C(F)(F)F)cc2[C@@H](N(Cc2cc(C(F)(F)F)cc(C(F)(F)F)c2)c2ncc(OCCCC(=O)O)cn2)C[C@H]1CC", "note": "[obicetrapib, {4-[(2-{[3,5-bis(trifluoromethyl)benzyl] [(2R,4S)-1-(ethoxycarbonyl)-2-ethyl-6-(trifluoromethyl)-1,2,3,4-tetrahydroquinolin-4-yl]amino}pyrimidin-5-yl)oxy]butanoic acid}]", "values": [
      {"measurement": "Completed the study (with PK), (%)", "setting": "[1]; [5]", "result": "(94.9) %"},
      {"measurement": "Completed treatment, (%)", "setting": "[1]; [5]", "result": "(92.3) %"},
      {"measurement": "Discontinued study early, (%)", "setting": "[1]; [5]", "result": "(5.1) %"},
      {"measurement": "Discontinued treatment, (%)", "setting": "[1]; [5]", "result": "(7.7) %"},
      {"measurement": "Primary reason for early study discontinuation: LOST TO FOLLOW-UP, (%)", "setting": "[1]; [5]", "result": "(2.6) %"},
      {"measurement": "Primary reason for early study discontinuation: OTHER, (%)", "setting": "[1]; [5]", "result": "(0.0) %"},
      {"measurement": "Primary reason for early study discontinuation: WITHDRAWAL BY SUBJECT, (%)", "setting": "[1]; [5]", "result": "(0.0) %"},
      {"measurement": "Primary reason for treatment discontinuation: NON-COMPLIANCE WITH STUDY DRUG, (%)", "setting": "[1]; [5]", "result": "(2.6) %"},
      {"measurement": "Primary reason for treatment discontinuation: OTHER, (%)", "setting": "[1]; [5]", "result": "(0.0) %"},
      {"measurement": "Primary reason for treatment discontinuation: WITHDRAWAL BY SUBJECT, (%)", "setting": "[1]; [5]", "result": "(0.0) %"},
      {"measurement": "Any TEAEs by maximum severity: Mild, e", "setting": "[1]; [6]", "result": 20},
      {"measurement": "Any TEAEs by maximum severity: Moderate, (%)", "setting": "[1]; [6]", "result": "(7.7) %"},
      {"measurement": "Any TEAEs leading to death, (%)", "setting": "[1]; [6]", "result": "(0.0) %"},
      {"measurement": "Any TEAEs leading to death, e", "setting": "[1]; [6]", "result": 0},
      {"measurement": "Any serious TEAEs (TESAEs), (%)", "setting": "[1]; [6]", "result": "(5.1) %"},
      {"measurement": "Any serious TEAEs (TESAEs), e", "setting": "[1]; [6]", "result": 2},
      {"measurement": "Any study drug-related TEAEs by maximum severity: Mild, e", "setting": "[1]; [6]", "result": 4},
      {"measurement": "Any study drug-related TEAEs by maximum severity: Moderate, (%)", "setting": "[1]; [6]", "result": "(5.1) %"},
      {"measurement": "Any study drug-related TEAEs by maximum severity: Severe, (%)", "setting": "[1]; [6]", "result": "(5.1) %"},
      {"measurement": "Any study drug-related TEAEs leading to discontinuation of study drug, (%)", "setting": "[1]; [6]", "result": "(5.1) %"},
      {"measurement": "Any study drug-related TEAEs, (%)", "setting": "[1]; [6]", "result": "(2.6) %"},
      {"measurement": "Any study drug-related TESAEs, (%)", "setting": "[1]; [6]", "result": "(2.6) %"},
      {"measurement": "Any study drug-related TESAEs, e", "setting": "[1]; [6]", "result": 1},
      {"measurement": "Any treatment-emergent AEs (TEAEs), e", "setting": "[1]; [6]", "result": 20},
      {"measurement": "Any TEAEs leading to discontinuation of study drug, (%)", "setting": "[1]; Safety Population, 10 mg each drug, first line so labelled (r25)", "result": "(0.0) %"},
      {"measurement": "Any TEAEs leading to discontinuation of study drug, (%)", "setting": "[1]; [7]", "result": "(0.0) %"},
      {"measurement": "Any TEAEs leading to discontinuation of study drug, e", "setting": "[1]; [7]", "result": 0},
      {"measurement": "cetp mass", "setting": "CETP; data not shown", "result": "does not affect"},
      {"measurement": "CETP activity, change", "setting": "CETP; obicetrapib 2 mg/kg/day, ezetimibe 1 mg/kg/day in Western diet", "result": "−99", "unit": "%"},
      {"measurement": "HDL-cholesterol", "setting": "[2]; FIG. 84B", "result": "increases"},
      {"measurement": "percentage of unaffected segments, increase", "setting": "[2]; [8]", "result": "+347%"},
      {"measurement": "severe lesions (types IV-V), change", "setting": "[2]; [8]", "result": "−82", "unit": "%"},
      {"measurement": "total atherosclerotic lesion size, change", "setting": "[2]; aortic root, 28 weeks of treatment, versus control", "result": "−90", "unit": "%"},
      {"measurement": "non-HDL-C levels, change", "setting": "[2]; [9]", "result": "−53", "unit": "%"},
      {"measurement": "total plasma cholesterol levels, change", "setting": "[2]; [9]", "result": "−31", "unit": "%"},
      {"measurement": "lesion number", "setting": "[2]; versus control animals, FIG. 90B", "result": "statistically significant reductions"},
      {"measurement": "HDL-C efflux capacity", "setting": "[3]; TA-8995-03, 10 mg daily dose", "result": "significant increase"},
      {"measurement": "additional reduction in LDL-C on top of atorvastatin 20 mg", "setting": "[3]; TA-8995-03, obicetrapib 10 mg", "result": 50.3, "unit": "%"},
      {"measurement": "adverse effect on critical physiological systems", "setting": "[4]", "result": "no adverse effect"}
    ]}
  ]
}
